This is an account of results in ChEMBL document CHEMBL1201862, “PubChem BioAssay data set” (2004).

Test systems include UACC-257; RPMI-8226; SK-OV-3; COLO 205; OVCAR-3; SF-268; SW-620; UACC-62; RXF 393; HCC 2998; OVCAR-4; UO-31; SN12C; HL-60; NCI-H460; HOP-92; M14; A498.
Assay in all cases: NCI-60 cell line screen, 48 h

Molecules are shown by their SMILES.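 Five concentrations, 48 hours, 96-well plates. Abbreviation: GI50, concentration required for 50% inhibition of growth.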 Active and inactive are the calls of the source. Cut-off read from the data, not from the text of the source: active = GI50 up to about 1.1 µM and inactive = higher. Where only a bound is given, the exact number is not on record here.

Take `O=c1c2ccccc2c2nc3ccccc3nc2n1C1CCCCC1`: the GI50 with UACC-257, in the experiment on RPMI-8226, with SK-OV-3, in the experiment with COLO 205, with OVCAR-3 and in the experiment with SF-268 was > 100 µM (inactive) each time. Further, the GI50 is > 100 µM (inactive) with SW-620; > 100 µM (inactive) with UACC-62; > 100 µM (inactive) in the experiment with RXF 393; > 100 µM (inactive) in the experiment on HCC 2998; 32.9 µM (inactive) in the experiment on OVCAR-4; > 100 µM (inactive) with UO-31. The GI50 with SN12C is > 100 µM (inactive).
In the case of `COC(=O)C(=O)C(C(=O)C(=O)Nc1cc([N+](=O)[O-])ccc1C#N)c1nc2ccccc2nc1O` (stereo not given), the GI50 in the experiment with UACC-257, in the experiment with HL-60, in the experiment on NCI-H460, with SK-OV-3, in the experiment on COLO 205 and in the experiment with OVCAR-3 was > 100 µM (inactive) each time. The GI50 in the experiment on SF-268, in the experiment on SW-620, in the experiment with UACC-62, with RXF 393, in the experiment with HCC 2998 and with OVCAR-4 was > 100 µM (inactive) each time. In addition, the GI50 in the experiment on UO-31 is 99.3 µM (inactive); in the experiment on HOP-92 it was 40.6 µM (inactive); with M14, > 100 µM (inactive); with SN12C it was > 100 µM (inactive).
Consider `Cc1ccc(/C=C2\CCCCC2=O)cc1`, for which the GI50 with HL-60 was 19 µM (inactive); in the experiment on A498, > 100 µM (inactive); in the experiment with NCI-H460, 80.9 µM (inactive); in the experiment on SK-OV-3, > 100 µM (inactive); in the experiment on COLO 205, > 100 µM (inactive); with OVCAR-3 it was > 100 µM (inactive). For the same compound, the GI50 in the experiment on SF-268 is > 100 µM (inactive); in the experiment with SW-620, > 100 µM (inactive); in the experiment on UACC-62, > 100 µM (inactive); in the experiment on OVCAR-4, 33.6 µM (inactive); with UO-31, 78.9 µM (inactive); with M14, 49.9 µM (inactive). Moreover, in the experiment on SN12C, the GI50 was 97.5 µM (inactive).
Regarding `COC(=O)C1=C(C(=O)OC)C2(c3ccccc3)OC1(c1ccccc1)c1cc3ccccc3cc12`, the GI50 is 0.45 µM (active) with HL-60; 0.764 µM (active) in the experiment on RPMI-8226; 3.56 µM (inactive) in the experiment with NCI-H460; 11.2 µM (inactive) in the experiment on SK-OV-3; 2.11 µM (inactive) in the experiment with COLO 205; 1.37 µM (inactive) with OVCAR-3. Further, the GI50 in the experiment with SF-268 was 1.73 µM (inactive); in the experiment with SW-620, 1.76 µM (inactive); in the experiment on UACC-62 it was 1.85 µM (inactive); in the experiment on RXF 393, 1.29 µM (inactive); with HCC 2998, 1.95 µM (inactive); in the experiment with OVCAR-4 it was 1.7 µM (inactive). The GI50 was 1.42 µM (inactive) in the experiment with UO-31, 1.09 µM (active) in the experiment on HOP-92, 1.79 µM (inactive) in the experiment on M14 and 1.9 µM (inactive) in the experiment on SN12C.
Consider `c1ccc(C(c2ccccc2)c2ccccn2)cc1`, for which the GI50 with UACC-257 is > 100 µM (inactive); in the experiment with RPMI-8226, 66.1 µM (inactive); in the experiment on A498 it was > 100 µM (inactive); in the experiment on NCI-H460, > 100 µM (inactive); with SK-OV-3 it was > 100 µM (inactive); with COLO 205, > 100 µM (inactive). Also, the GI50 in the experiment on OVCAR-3, in the experiment with SF-268, in the experiment on SW-620, with UACC-62, in the experiment on HCC 2998 and in the experiment with OVCAR-4 was > 100 µM (inactive) in each case. The GI50 with UO-31, with M14 and in the experiment with SN12C was > 100 µM (inactive) throughout.
For the compound `Cc1c2n(c(=O)[nH]c1=O)C1OC(CO)C(N=[N+]=[N-])C1O2` (stereo not given), the GI50 with UACC-257, with HL-60, with RPMI-8226, in the experiment with A498, in the experiment with NCI-H460 and in the experiment with SK-OV-3 was > 100 µM (inactive) each time. The GI50 was > 100 µM (inactive) with COLO 205; > 100 µM (inactive) in the experiment on OVCAR-3; > 100 µM (inactive) in the experiment with SF-268; > 100 µM (inactive) in the experiment with SW-620; > 100 µM (inactive) with UACC-62; 28 µM (inactive) with RXF 393. Also, the GI50 with OVCAR-4 is > 100 µM (inactive); in the experiment on UO-31, > 100 µM (inactive); in the experiment with HOP-92, 49.5 µM (inactive); in the experiment on SN12C it was > 100 µM (inactive).
Turning to `COc1cc2c(cc1O)C1C(O)C(O)C=C3CCN(C2)C31` (stereo not given), the GI50 was 2.67 µM (inactive) with UACC-257; 2.66 µM (inactive) in the experiment on HL-60; 3.58 µM (inactive) in the experiment on RPMI-8226; 1.83 µM (inactive) in the experiment with NCI-H460; 4.11 µM (inactive) in the experiment on SK-OV-3; 1.44 µM (inactive) in the experiment with COLO 205. Further, the GI50 was 2.67 µM (inactive) with OVCAR-3; 2.2 µM (inactive) in the experiment on SF-268; 2.49 µM (inactive) in the experiment on SW-620; 1.69 µM (inactive) in the experiment with UACC-62; 1.45 µM (inactive) in the experiment with RXF 393; 2.4 µM (inactive) in the experiment on HCC 2998. In addition, the GI50 with OVCAR-4 was 1.38 µM (inactive); in the experiment with UO-31, 2.77 µM (inactive); in the experiment on HOP-92, 1.16 µM (inactive); with M14 it was 1.79 µM (inactive); in the experiment on SN12C, 2.84 µM (inactive).
`CCOC(=O)CN(c1ccccc1)c1nc(=[N+](C)C)ss1`: the GI50 was 24.3 µM (inactive) with UACC-257; 13.1 µM (inactive) in the experiment with HL-60; 1.19 µM (inactive) with RPMI-8226; 42.5 µM (inactive) in the experiment with A498; 85.1 µM (inactive) in the experiment with SK-OV-3; 2.06 µM (inactive) in the experiment with COLO 205. Also, the GI50 was 0.284 µM (active) with OVCAR-3; 45.2 µM (inactive) in the experiment on SF-268; 53.1 µM (inactive) in the experiment with SW-620; 26.9 µM (inactive) in the experiment on UACC-62; 10.5 µM (inactive) in the experiment on RXF 393; 41.1 µM (inactive) in the experiment with HCC 2998. For the same compound, the GI50 is 17.7 µM (inactive) in the experiment on OVCAR-4, 23.7 µM (inactive) with UO-31, 32.4 µM (inactive) in the experiment on M14 and 17.9 µM (inactive) in the experiment with SN12C.
As to `CC(CCc1ccc2c(c1)c(N)c1ccc(N)cc1[n+]2[O-])CC(C)(C)C` (stereo not given), the GI50 is 1.99 µM (inactive) in the experiment on UACC-257; 1.3 µM (inactive) in the experiment with HL-60; 1.92 µM (inactive) with RPMI-8226; 1.89 µM (inactive) in the experiment with A498; 0.597 µM (active) with NCI-H460; 1.45 µM (inactive) in the experiment on COLO 205. In addition, the GI50 in the experiment on OVCAR-3 is 1.73 µM (inactive); in the experiment with SF-268 it was 2.2 µM (inactive); in the experiment on SW-620, 1.68 µM (inactive); with UACC-62, 1.45 µM (inactive); with RXF 393 it was 2 µM (inactive); with HCC 2998, 1.55 µM (inactive). In addition, the GI50 in the experiment on OVCAR-4 is 2.05 µM (inactive); with UO-31, 8.95 µM (inactive); in the experiment on M14, 1.75 µM (inactive); in the experiment with SN12C, 1.79 µM (inactive).
As to `CC1(C)c2ccccc2N2C(c3ccccc3)=NOC21C` (stereo not given), the GI50 in the experiment with UACC-257, in the experiment on HL-60, in the experiment on RPMI-8226, in the experiment on A498, with NCI-H460 and in the experiment on SK-OV-3 was > 100 µM (inactive) in each case. For the same compound, the GI50 in the experiment on COLO 205, with OVCAR-3, in the experiment with SF-268, in the experiment on SW-620, in the experiment on UACC-62 and in the experiment on RXF 393 was > 100 µM (inactive) in each case. The GI50 in the experiment on OVCAR-4, in the experiment on UO-31, in the experiment with HOP-92, in the experiment with M14 and in the experiment on SN12C was > 100 µM (inactive) each time.
In the case of `CC(=O)O[C@H]1C(=O)[C@@]2(C)C([C@H](OC(=O)c3ccccc3)[C@]3(O)C[C@H](OC(=O)[C@H](O)[C@H](NC(=O)c4ccccc4)c4ccc(Cl)cc4)C(C)=C1C3(C)C)C1(OC(C)=O)CO[C@@H]1C[C@@H]2O` (stereo not given in full), the GI50 in the experiment on UACC-257 was 0.00425 µM (active); with HL-60, < 0.0001 µM (active); in the experiment with RPMI-8226, 0.000157 µM (active); in the experiment on A498, 0.0256 µM (active); in the experiment on NCI-H460 it was 0.000557 µM (active); with SK-OV-3, 0.00163 µM (active). Besides, the GI50 in the experiment on COLO 205 is 0.00188 µM (active); in the experiment on OVCAR-3 it was 0.00222 µM (active); with SF-268, 0.00156 µM (active); in the experiment with SW-620, 0.000497 µM (active); in the experiment on UACC-62 it was 0.000376 µM (active); in the experiment with RXF 393, 0.0149 µM (active). Besides, the GI50 was 0.000813 µM (active) with HCC 2998; 0.889 µM (active) in the experiment on OVCAR-4; 0.733 µM (active) in the experiment with UO-31; 0.00224 µM (active) in the experiment on M14; 0.000841 µM (active) in the experiment with SN12C.
For the compound `Cc1cc(C)nc(NS(=O)(=O)c2ccc(NC(=O)NC(F)(F)F)cc2)n1`, the GI50 in the experiment with UACC-257, in the experiment with HL-60, in the experiment with RPMI-8226, in the experiment on A498, with SK-OV-3 and with COLO 205 was > 100 µM (inactive) throughout. The GI50 in the experiment on SF-268, in the experiment with SW-620, in the experiment with RXF 393, in the experiment with HCC 2998, in the experiment on UO-31 and in the experiment on M14 was > 100 µM (inactive) each time. Further, the GI50 with SN12C is > 100 µM (inactive).
